Source: paper PMC3260180, “FRET-Based Detection of M1 Muscarinic Acetylcholine Receptor Activation by Orthosteric and Allosteric Agonists” (PLoS ONE, 2012)

Legend:
[1] = molecular target: T1, M1-cam5 mAChR (Mus musculus, UniProt P12657, INS361[…]); conditions: 1–300 µM for 5 min, serum-starved HEK293-M1-cam5 cells
Description: Proteins were visualized using ECL reagent from GE Healthcare (Chalfont St. Giles, UK).
Phosphoinositide turnover was assessed by monitoring the translocation of the eGFP-PH probe from the plasma membrane to the cytoplasm on addition of MCh (10 µM) for 60 s, followed by washout.

[2] = system: M3 mAChRs; assay: Total [3H]inositol phosphate accumulation in wild-type HEK293 cells; format: cell-based, human; conditions: Li+ (10 mM)
Description: (§1) HEK293-M1-cam5 and HEK293 cells were seeded at 100,000 cells/well in 24-well plates and incubated in fresh medium containing 2.5 µCi/mL [^3H]inositol for 48 h. The assay was performed as previously described.
As an index of PLC activation, agonist-stimulated accumulation of total [^3H]IPx was assessed in the presence of Li^+ (10 mM).

[3] = molecular target: T2, M1-cam5 (Mus musculus, UniProt P12657, INS361[…]); assay: eGFP-PH biosensor translocation (phosphoinositide turnover) in HEK293-M1-cam5 cells; format: cell-based; conditions: 10 µM for 60 s
T2 construct: addition of the EYFP^F46L to the C-terminus of full length M1 mAChR; expressed in transfected cells; host or cells: HEK293 cells stably expressing M1-cam5 (HEK293-M1-cam5)

[4] = molecular target: M1-3ic-ECFPc and M1-cterm-EYFP^F46L (Mus musculus, UniProt P12657, INS361[…]); assay: FRET control with coexpressed M1-3ic-ECFPc and M1-cterm-EYFPF46L in HEK293 cells; conditions: 300 µM
Description: Briefly, HEK293 cells grown on coverslips were mounted on a Nikon Eclipse TE2000-S inverted microscope (Nikon) using an “Attofluor” cell chamber (Molecular Probes, Leiden, The Netherlands) and continuously superfused with HBS (150 mM NaCl, 10 mM HEPES, 10 mM glucose, 2.5 mM KCl, 4 mM CaCl2, 2 mM MgCl2, pH 7.4). Cells were observed using an oil immersion 63× lens, a polychrome V (Till Photonics, Gräfelfing, Germany) for excitation, and a dual emission photometric system. In order to minimize photobleaching, illumination time was set to 10–40 ms, applied with a frequency of 10 Hz. Fluorescence was measured at 535±15 nm (F535) and 480±20 nm (F480) (beam splitter DCLP 505 nm, Chroma Technology, Rockingham, VT, USA) on excitation at 436±10 nm (beam splitter DCLP 460 nm, Chroma Technology). The signals were detected by avalanche photodiodes and digitized using an analog/digital converter (Digidata 1322A, Axon Instruments, Union City, CA, USA) and stored on a PC using Axoscope software (Axon Instruments). The experiments were performed at room temperature.
FRET was assessed using the ratio of normalized EYFP^F46L/ECFPc fluorescence intensities.
HEK-293 cells were transiently transfected with either (A) M1-cam5 or (B) two separate plasmids, one encoding M1 with a C-terminal YFP^F46L tag and the other encoding M1 with an ECFPc tag at the same third intracellular loop location as M1-cam5. […]

[5] = molecular target: T1, M1-cam5 mAChR; assay: Receptor internalization by confocal microscopy in HEK293-M1-cam5 cells; format: cell-based; parameters: addition of the EYFP^F46L to the C-terminus of full length M1 mAChR; expressed in transfected cells; host or cells: HEK293 cells stably expressing M1-cam5 (HEK293-M1-cam5)
Description: Cells were seeded on coverslips coated with 100 µg/mL poly-D-lysine in PBS. When 70–80% confluency was reached, in some instances the cells were treated with various concentrations of agonists at 37°C and fixed with 4% paraformaldehyde. After a 5 min wash with PBS, the slides were mounted with Slowfade Gold/DAPI (Invitrogen, UK). The slides were examined using an Olympus FV500 confocal microscope, ECFPc and EYFP^F46L were excited via the 458 nm and 515 nm line of the argon laser and emissions were then collected at 480–495 nm and 535–565 nm, respectively. Optical sections (0.5 µm) were taken, and representative sections corresponding to the middle of the cells are presented. For each treatment, between 20 and 30 individual cells in three random fields of view were selected and examined. Fluorescence intensity of specific regions of interest (longitudinal axis) was quantified by using the Measure function of Image J software developed at the National Institutes of Health (http://rsb.info.nih.gov/ij/), as previously described. Briefly, relative quantification of intracellular (internalized) M1-cam5 was determined by measuring the amount of total fluorescence along the longitudinal axis corresponding to the intracellular space (average 4–18 ìm) excluding nucleus. Intracellular fluorescence in cells not treated with the agonist was considered to be basal fluorescence (assigned the value of 1). All other data are normalized to this basal fluorescence level.
Figure 4 Internalization characteristics of the M1-cam5 mAChR stably expressed in HEK293 cells. HEK293-M1-cam5 cells were treated with various concentration of MCh for 45 min (to assess the concentration-dependency of receptor internalization), or with MCh (300 µM) for 0–60 min (to assess the time-dependency of receptor internalization). Cellular distributions of M1-cam5 mAChR were monitored by confocal microscopy. For quantification of intracellular fluorescence at least […] of view were examined as described in the Methods section. […]

[6] = molecular target: T1, M1-cam5 mAChR; assay: Total [3H]inositol phosphate accumulation in HEK293-M1-cam5 cells; format: cell-based; parameters: addition of the EYFP^F46L to the C-terminus of full length M1 mAChR; expressed in transfected cells; host or cells: HEK293 cells stably expressing M1-cam5 (HEK293-M1-cam5); conditions: in presence of Li+ (10 mM)
Description: as §1
As an index of PLC activation, agonist-stimulated accumulation of total [^3H]IPx was assessed in the presence of Li^+ (10 mM). […] On removal of agonist, the eGFP-PH biosensor translocated back to the plasma membrane.

[7] = molecular target: T1, M1-cam5 mAChR; assay: FRET measurements (FEYFP/FECFP) in HEK293-M1-cam5 cells; format: cell-based; parameters: addition of the EYFP^F46L to the C-terminus of full length M1 mAChR; expressed in transfected cells; host or cells: HEK293 cells stably expressing M1-cam5 (HEK293-M1-cam5); conditions: for maximal FRET decrease: maximally effective concentration (MCh 300 µM, arecoline 300 µM, pilocarpine 300 µM, 77-LH-28-1 10 µM, AC-42 30 µM), room temperature
Description: The experiments were performed at room temperature.
We also assessed the kinetics of MCh-mediated receptor conformational change with time-resolved determinations of the FRET signal recorded from single cells on activation of M1-cam5 mAChR with various concentrations of MCh.

[8] = molecular target: T3, M1-cam5 AChR (Mus musculus, UniProt P12657, INS361[…]); assay: [3H]NMS competition binding in intact HEK293-M1-cam5 cell monolayers; conditions: [3H]NMS (~0.3 nM) competition, agonists 4°C for 4 h, antagonists 37°C for 45 min, mean ± s.e.m.
T3 construct: addition of the EYFP^F46L to the C-terminus of full length M1 mAChR; expressed in transfected cells; host or cells: HEK293 cells stably expressing M1-cam5 (HEK293-M1-cam5)
Description: Briefly, HEK293-M1-cam5 cells were seeded at a density of 75,000 cells/well in 24-well plates. […] […] After cell solubilization, SafeFluor scintillation fluid was added, and samples were counted on a scintillation counter.

| Structure (SMILES) | M1-cam5 mAChR internalization (endocytosis) [5] | maximal FRET decrease [7] [%] | pK B (apparent binding affinity, −log K B) [8] | other results |
| --- | --- | --- | --- | --- |
| CC(=O)OC(C)C[N+](C)(C)C (stereo not drawn) [MCh, methacholine] | internalized in response to MCh in a concentration- and time-dependent manner | 9.8±0.4 |  | ERK1/2 phosphorylation [1]: rapid increase; EC50 right-shift of [3H]IPx accumulation relative to HEK293-M1-cam5 cells [2]: > 10 fold; translocation of the eGFP-PH biosensor from the plasma membrane to the cytoplasm [3]: detectable translocation; FRET response in cells coexpressing singly tagged receptors [4]: no FRET response; [3H]IPx accumulation, maximal stimulation ([6]; basal 3,781±1,792): 41,954±1,030 d.p.m. mg^−1 protein; increase in [3H]IPx accumulation, maximal stimulation ([6]; over basal): 11 fold |
| C[N+](C)(C)CC#CCN1CCCC1=O [oxo-M, oxotremorine-M] | resulted in receptor endocytosis |  | 5.94±0.10 |  |
| CCCCC1CCN(CCCC(=O)c2ccccc2C)CC1 [AC-42] | resulted in receptor endocytosis | 5.1±0.3 | 5.11±0.11 |  |
| CN1[C@@H]2CC[C@H]1C[C@@H](OC(=O)C(CO)c1ccccc1)C2 (stereo partly drawn) [atropine] |  |  |  | effect alone on basal M1-cam5 FRET signal [7]: no effect; prevention of agonist-induced FRET change by pre-addition [7]: completely prevented; reversal of agonist-induced FRET change [7]: reversed |
| CCCCC1CCN(CCCN2C(=O)CCc3ccccc32)CC1 [77-LH-28-1] |  | 6.4±0.4 | 6.17±0.12 |  |
